Measured values published in patent US20210269478A1, “ADJUVANT FOR CELL CULTURE” (FUKUSHIMA MEDICAL UNIVERSITY, priority 2018, published 2021).

B1: rJAM-C: polypeptide obtained by linking the Fc region of human IgG1 to the C-terminus of the extracellular domain (Met 1-Asn 241) of human JAM-C; Sino Biological (protein)
chain: EAVNLKSSNRNPVVHEFESVELSCIITDSQTSDPRIEWKKIQDGQTTYVYFDNKIQGDLAGRTDVFGKTSLRIWNVTRSDSAIYRCEVVALNDRKEVDEITIELIVQVKPVTPVCRIPAAVPVGKTATLQCQESEGYPRPHYSWYRNDVPLPTDSRANPRFQNSSFHVNSETGTLVFNAVHKDDSGQYYCIASNDAGAARCEGQDMEVYDLN

Tests used:
[1] = system: F9 cells expressing JAM-B and JAM-C; assay: Cell adhesion assay, crystal violet staining of adhered F9 cells; format: cell-based; conditions: coating at 286 ng/cm^2 in 96-well dish; 30 min after adding cells; relative to vehicle defined as 1
Procedure: JAM-C D1 (286 ng/cm^2) was added to a 96-well plastic culture dish, then F9 stem cells were added thereto, and after 30 min the number of adhered cells was measured with crystal violet staining, while performing no coating as a negative control, and using type I collagen (1,430 ng/cm^2) and rJAM-C (1,430 ng/cm^2) as positive controls. The cell number was expressed as a relative value based on the value of the vehicle defined as 1. Error bar indicates standard deviation. Asterisk(s) indicate the result of the t-test; where * means P<0.05; and *** means P<0.001.
(§1) For each of recombinant soluble JAM-C (polypeptide obtained by linking the Fc region of human IgG1 to the C-terminus of the extracellular domain (Met 1-Asn 241) of human JAM-C; Sino Biological) and murine IgG (GE Healthcare), 20, 100, or 500 ng volume thereof was diluted in 50 μL PBS and disposed into a 96-well round-bottom plate, which was then left standing at 30° C. for 12 hours. As a positive control, 500 ng of collagen Cellmatrix type I-A (Nitta Gelatin Inc.) was processed in the same manner. […]
After washing twice with PBS, ADSCs were detached using a 0.25% trypsin/1 mM EDTA solution and inoculated to the above plate and cultured in a CO2 incubator at 37° C. for 30 min. […] Finally, 50 μL of 5% SDS was used for lysis, and the absorbance was measured at 560 nm wavelength. […]

[2] = system: ADSCs (adipose-derived stem cells); assay: Cell proliferation assay, BrdU-positive divided by DAPI-positive cells; format: cell-based, murine
Procedure: The result was expressed as a relative value based on the value of mIgG defined as 1. Error bar indicates standard deviation. Asterisk(s) indicate the result of t-test; where * means P<0.05; ** means P<0.01; and *** means P<0.001.
The results are shown relative to the total cell number defined as 1. P-value was calculated by a chi-square test (n=353, n=501).
Cells (4×10^4 cells) were inoculated in a 6-well culture dish, and, 24 hours later, treated with 5-bromo-2′-deoxyuridine (BrdU; #B-5002, Sigma-Aldrich) at the final concentration of 10 μM for 2 hours, and then fixed with 4% PFA. Then, the sample was stained according to the method recommended by the manufacturer, and imaged with a fluorescent phase-contrast microscope (OLYMPUS IX71, Olympus Corporation) and a DP Controller. The number of BrdU-positive particles was divided by that of DAPI-positive ones to obtain a proliferated cell number.

[3] = system: stem cell markers Klf4, Nanog, c-Myc, and Sox2 in ADSCs; assay: Semi-quantitative RT-PCR of stem cell markers in ADSCs cultured on coated dish; format: cell-based, murine
Text: The result was expressed as a relative value based on the value of mIgG defined as 1. Error bar indicates standard deviation. Asterisk(s) indicate the result of the t-test; where * means P<0.05; ** means P<0.01; and *** means P<0.001.
The result was expressed as a relative value with respect to the value of vehicle defined as 1. Error bar indicates standard deviation in three experiments. Asterisk(s) indicate the result of t-test; where * means P<0.05; ** means P<0.01; and *** means P<0.001.
RNA extraction and RT-PCR were performed using a common method previously described (Sugimoto, et al., PLoS One, 2013, 10: e751062013). […] Semi-quantitative PCR was performed using the GoTaq Green Master Mix Kit (Promega) and primers [Sox2 (5′-[…]-3′ (SEQ ID NO: 23), and 5′-[…]-3′ (SEQ ID NO: 24)); c-Myc (5′-[…]-3′ (SEQ ID NO: 25), and 5′-[…]-3′ (SEQ ID NO: 26)); Nanog (5′-[…]-3′ (SEQ ID NO: 27), and 5′-[…]-3′ (SEQ ID NO: 28)); Klf4 (5′-[…]-3′ (SEQ ID NO: 29), and 5′-[…]-3′ (SEQ ID NO: 30)); and Gapdh (5′-[…]-3′ (SEQ ID NO: 31), and 5′-[…]-3′ (SEQ ID NO: 32))] to amplify the target sequences. […] Then the brightness in a region corresponding to the molecular weight of interest was quantified using the ImageJ (National Institute of Health (NIH)) and statistically analyzed.

[4] = system: ADSCs (adipose-derived stem cells); assay: Cell adhesion assay, crystal violet staining of adhered ADSCs; format: cell-based; conditions: coating at 20, 100, and 500 ng per well in 96-well plate; 30 min after adding cells; versus murine IgG control
Procedure: The rJAM-C, or murine IgG (mIgG) as a negative control (both in 20, 100, and 500 ng (57, 286, and 1,430 ng/cm^2, respectively)), and type I collagen (500 ng) as a positive control were added to a 96-well plastic culture dish, and then ADSCs were added. After 30 min, the number of adhered cells was measured by crystal violet staining, and the relative absorbance was measured. The absorbance was expressed by a relative absorbance based on the result of the vehicle defined as 1. Error bar indicates standard deviation. Asterisk(s) indicate the result of t-test; where * means P<0.05; and *** means P<0.001.
as §1
After washing twice with PBS, ADSCs were detached using a 0.25% trypsin/1 mM EDTA solution and inoculated to the above plate and cultured in a CO2 incubator at 37° C. for 30 min. […] Finally, 50 μL of 5% SDS was used for lysis, and the absorbance was measured at 560 nm wavelength.

Row | Molecule | adhesion of F9 cells (adhered cell number) [1] | proliferation ability (BrdU-positive / DAPI-positive cells) ([2]; ADSCs in 6-well dish coated at 52 ng/cm^2, chi-square test) | expression of stem cell markers Nanog, Klf4, Sox2, and c-Myc ([3]; ADSCs in 6-well dish coated at 52 ng/cm^2, relative to vehicle defined as 1) | adhesion of ADSCs (adherent cell number, relative absorbance) [4] | proliferation ability (BrdU-positive / DAPI-positive cells) ([2]; ADSCs in 6-well dish coated at 104 ng/cm^2, relative to mIgG defined as 1) | expression of stem cell markers Klf4, Nanog, c-Myc, and Sox2 ([3]; ADSCs in 12-well dish coated at 132 ng/cm^2, cultured 48 hours, relative to mIgG defined as 1)
1 | DPRIEWKKI [JAM-C D1] | significantly increased | significantly increased | significantly increased | – | – | –
2 | B1 | – | – | – | significantly increased | about 2 fold | significantly increased
